# What was measured:
# Format in all cases: in vivo
# [1] = tested on: kochia (Bassia scoparia); assay: Test A postemergence application, visual injury rating 0-100
# Method in brief: (§1)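 Grow plants in loam soil blended with sand. Apply formulated compound (non-phytotoxic solvent, surfactant) as a directed soil spray before emergence, or to plants at the one- to two-leaf stage after emergence. Hold in greenhouse 10 days, then rate injury visually versus untreated controls on a 0-100 scale.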
# [2] = tested on: corn (Zea mays); assay: as above
# Method in brief: as §1
# [3] = tested on: horseweed (Erigeron canadensis); assay: as above
# Method in brief: as §1
# [4] = tested on: soybean (Glycine max); assay: as above
# Method in brief: as §1
# [5] = tested on: ragweed (common ragweed, Ambrosia artemisiifolia); assay: as above
# Method in brief: as §1
# [6] = tested on: galium (catchweed bedstraw, Galium aparine); assay: as above
# Method in brief: as §1
# [7] = tested on: ryegrass, Italian (italian ryegrass, Lolium multiflorum); assay: as above
# Method in brief: as §1
# [8] = tested on: palmer (palmer amaranth, palmer pigweed, Amaranthus palmeri); assay: as above
# Method in brief: as §1
# [9] = tested on: barnyardgrass (Echinochloa crus-galli); assay: as above
# Method in brief: as §1
# [10] = tested on: blackgrass (Alopecurus myosuroides); assay: as above
# Method in brief: as §1
# [11] = tested on: wheat (Triticum aestivum); assay: as above
# Method in brief: as §1
# [12] = tested on: oat, wild (wild oat, Avena fatua); assay: as above
# Method in brief: as §1
# [13] = tested on: green foxtail (Setaria viridis); assay: as above
# Method in brief: as §1
# [14] = tested on: kochia (Bassia scoparia); assay: Test A preemergence soil spray, visual injury rating 0-100; conditions: 10 days
# Method in brief: as §1
# [15] = tested on: corn (Zea mays); assay: as above; conditions: 10 days
# Method in brief: as §1
# [16] = tested on: soybean (Glycine max); assay: as above; conditions: 10 days
# Method in brief: as §1
# [17] = tested on: ragweed (common ragweed, Ambrosia artemisiifolia); assay: as above; conditions: 10 days
# Method in brief: as §1
# [18] = tested on: ryegrass, Italian (italian ryegrass, Lolium multiflorum); assay: as above; conditions: 10 days
# Method in brief: as §1
# [19] = tested on: palmer (palmer amaranth, palmer pigweed, Amaranthus palmeri); assay: as above; conditions: 10 days
# Method in brief: as §1
# [20] = tested on: barnyardgrass (Echinochloa crus-galli); assay: as above; conditions: 10 days
# Method in brief: as §1
# [21] = tested on: blackgrass (Alopecurus myosuroides); assay: as above; conditions: 10 days
# Method in brief: as §1
# [22] = tested on: wheat (Triticum aestivum); assay: as above; conditions: 10 days
# Method in brief: as §1
# [23] = tested on: oat, wild (wild oat, Avena fatua); assay: as above; conditions: 10 days
# Method in brief: as §1
# [24] = tested on: green foxtail (Setaria viridis); assay: as above; conditions: 10 days
# Method in brief: as §1
# [25] = tested on: barnyardgrass (Echinochloa crusgalli); assay: Test B flooded paddy test, visual plant response rating 0-100; conditions: 250 g ai/ha, Flood, applied to paddy water, evaluated after 13 days
# Method in brief: (§2)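 Greenhouse, 13 d. Seedlings at 2-leaf stage, pots flooded to 3 cm, compound delivered into floodwater, water level held constant. Evaluated visually relative to controls.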
# [26] = tested on: ducksalad (Heteranthera limosa); assay: as above; conditions: 250 g ai/ha, Flood, applied to paddy water, evaluated after 13 days
# Method in brief: as §2
# [27] = tested on: sedge, umbrella (small-flower umbrella sedge, Cyperus difformis); assay: as above; conditions: 250 g ai/ha, Flood, applied to paddy water, evaluated after 13 days
# Method in brief: as §2
# [28] = tested on: rice (Oryza sativa); assay: as above; conditions: 250 g ai/ha, Flood, applied to paddy water, evaluated after 13 days
# Method in brief: as §2
# [29] = 62 g ai/ha, postemergence, 10 days, 0 = no effect, 100 = complete control
# [30] = Postemergence, 16 g ai/ha, greenhouse 10 days, 0 no effect, 100 complete control
# [31] = 62 g ai/ha, 0 = no effect, 100 = complete control
smiles,measurement,setting,value
C=CC1(C(=O)NC2C=CC(C(=O)O)C2)CN(c2cc(F)cc(F)c2)C(=O)O1 (mixture of isomers) [Compound 166],Kochia plant response rating (0-100),[1]; [29],80
same,Kochia plant response rating (0 to 100 scale),[1]; [30],80
same,Corn plant response rating (0-100),[2]; [29],100
same,Corn plant response rating (0 to 100 scale),[2]; [30],90
same,Horseweed plant response rating (0-100),[3]; [29],80
same,Horseweed plant response rating (0 to 100 scale),[3]; [30],50
same,Soybean plant response rating (0-100),[4]; [29],100
same,Soybean plant response rating (0 to 100 scale),[4]; [30],80
same,Ragweed plant response rating (0-100),[5]; [29],70
same,Ragweed plant response rating (0 to 100 scale),[5]; [30],40
same,Galium plant response rating (0-100),[6]; [29],90
same,Galium plant response rating (0 to 100 scale),[6]; [30],70
same,"Ryegrass, Italian plant response rating (0-100)",[7]; [29],90
same,"Ryegrass, Italian plant response rating (0 to 100 scale)",[7]; [30],60
same,"Pigweed, Palmer plant response rating (0-100)",[8]; [29],90
same,"Pigweed, Palmer plant response rating (0 to 100 scale)",[8]; [30],90
same,Barnyardgrass plant response rating (0-100),[9]; [29],100
same,Barnyardgrass plant response rating (0 to 100 scale),[9]; [30],90
same,Blackgrass plant response rating (0-100),[10]; [29],90
same,Blackgrass plant response rating (0 to 100 scale),[10]; [30],70
same,Wheat plant response rating (0-100),[11]; [29],90
same,Wheat plant response rating (0 to 100 scale),[11]; [30],90
same,"Oat, Wild plant response rating (0-100)",[12]; [29],90
same,"Oat, Wild plant response rating (0 to 100 scale)",[12]; [30],90
same,"Foxtail, Green plant response rating (0-100)",[13]; [29],90
same,"Foxtail, Green plant response rating (0 to 100 scale)",[13]; [30],30
same,Kochia plant response rating,"[14]; 16 g ai/ha, 0 to 100 scale",0
same,Kochia plant response rating (0-100),[14]; [31],60
same,Corn plant response rating,"[15]; 16 g ai/ha, 0 to 100 scale",20
same,Corn plant response rating (0-100),[15]; [31],60
same,Soybean plant response rating,"[16]; 16 g ai/ha, 0 to 100 scale",20
same,Soybean plant response rating (0-100),[16]; [31],90
same,Ragweed plant response rating,"[17]; 16 g ai/ha, 0 to 100 scale",0
same,Ragweed plant response rating (0-100),[17]; [31],30
same,"Ryegrass, Italian plant response rating","[18]; 16 g ai/ha, 0 to 100 scale",0
same,"Ryegrass, Italian plant response rating (0-100)",[18]; [31],90
same,"Pigweed, Palmer plant response rating","[19]; 16 g ai/ha, 0 to 100 scale",20
same,"Pigweed, Palmer plant response rating (0-100)",[19]; [31],100
same,Barnyardgrass plant response rating,"[20]; 16 g ai/ha, 0 to 100 scale",40
same,Barnyardgrass plant response rating (0-100),[20]; [31],100
same,Blackgrass plant response rating,"[21]; 16 g ai/ha, 0 to 100 scale",10
same,Blackgrass plant response rating (0-100),[21]; [31],70
same,Wheat plant response rating,"[22]; 16 g ai/ha, 0 to 100 scale",60
same,Wheat plant response rating (0-100),[22]; [31],90
same,"Oat, Wild plant response rating","[23]; 16 g ai/ha, 0 to 100 scale",0
same,"Oat, Wild plant response rating (0-100)",[23]; [31],60
same,"Foxtail, Green plant response rating","[24]; 16 g ai/ha, 0 to 100 scale",0
same,"Foxtail, Green plant response rating (0-100)",[24]; [31],50
same,"Plant response rating, Barnyardgrass (0 to 100 scale, 0 is no effect and 100 is complete control)",[25],95
same,"Plant response rating, Ducksalad (0 to 100 scale, 0 is no effect and 100 is complete control)",[26],85
same,"Plant response rating, Sedge, Umbrella (0 to 100 scale, 0 is no effect and 100 is complete control)",[27],95
same,"Plant response rating, Rice (0 to 100 scale, 0 is no effect and 100 is complete control)",[28],80
